Data taken from patent US9133228B2, “Guanidinyl-substituted polyamides useful for treating human papilloma virus” (Nanovir, LLC, priority 2011, dated 2015).

Assays:
[1] = system: HPV16; assay: Inhibition of viral replication in cells that maintain HPV16 DNA, viral DNA quantified by real-time PCR; assay type: cell-based, Human papilloma virus
Excerpt: (§1) Table 1a lists a number of exemplary polyamides synthesized in accordance with the present invention. The HPLC/MW values given in Table 1b were obtained using low resolution high pressure liquid chromatography/mass spectrometry (LR HPLC/MS), which provides moderate precision masses of single isotopomers rather than average molecular weights or exact masses. Table 2 presents a summary of measured IC50 values of certain of these polyamides against HPV16, HPV18 and HPV31. The IC50 is the concentration of compound required for 50% inhibition of viral replication in vitro. The polyamides were tested in cells that maintain HPV16, HPV18 or HPV31 DNA. Cells maintaining the selected HPV were cultured for 72 hours in the presence of the polyamide. Viral DNA was then quantified using real-time PCR and compared to vehicle (DMSO)-treated control cultures. […] Table 3 presents a summary of measured IC50 and IC90 values of certain of these polyamides against HPV16, HPV18 and HPV31.

[2] = system: HPV18; assay: Inhibition of viral replication in cells that maintain HPV18 DNA, viral DNA quantified by real-time PCR; assay type: cell-based, Human papilloma virus
Excerpt: as §1

[3] = system: HPV31; assay: Inhibition of viral replication in cells that maintain HPV31 DNA, viral DNA quantified by real-time PCR; assay type: cell-based, Human papilloma virus
Excerpt: as §1

[4] = system: sequence of HPV16 (365 bp: 7662-122); assay: DNase I footprinting experiment; assay type: binding, Human papilloma virus; details: polyamide 2 nM and 5 nM; DNA 200 pM; DMSO and CHAPS; 37° C. for 5-6 hrs
Protocol: FIG. 9 illustrates a footprinting experiment of NV1087 on a sequence of HPV16 (365 bp: 7662-122). All reactions were carried out in presence of DMSO and CHAPS, and the final DNA concentration was 200 pM. The polyamide concentration varied (2 nM and 5 nM). Reactions were incubated with polyamide at 37° C. for 5-6 hrs.

[5] = cells maintaining HPV16 cultured 72 hours with polyamide, vs DMSO control, highest dose tested 10 μM
[6] = cells maintaining HPV18 cultured 72 hours with polyamide, vs DMSO control, highest dose tested 10 μM
[7] = cells maintaining HPV31 cultured 72 hours with polyamide, vs DMSO control, highest dose tested 10 μM

Row | Compound | IC50 [1, 5] [nM] | IC50 [2, 6] [nM] | IC50 [3, 7] [nM] | protection of DNA from digestion by DNase I (decrease in peak heights) [4] | IC50 ([1]; Table 3, 72 hours) [nM] | IC90 ([1]; Table 3, 72 hours) [nM] | IC50 ([2]; Table 3, 72 hours) [nM] | IC90 ([2]; Table 3, 72 hours) [nM] | IC50 ([3]; Table 3, 72 hours) [nM] | IC90 ([3]; Table 3, 72 hours) [nM]
1 | CN(CCCN)CCCNC(=O)CCNC(=O)c1cc(NC(=O)CCNC(=O)c2cc(NC(=O)c3cc(NC(=O)c4cc(NC(=O)CCNC(=O)c5cc(NC(=O)c6cc(NC(=O)CCNC(=O)c7cc(NC(=O)CCCNC(=O)c8nc(NC(=O)c9cc(NC(=O)CCNC(=O)c%10cc(NC(=O)c%11cc(NC(=O)CCNC(=O)c%12cc(NC(=O)c%13cc(NC(=O)c%14cc(N=C(N(C)C)N(C)C)cn%14C)cn%13C)cn%12C)cn%11C)cn%10C)cn9C)cn8C)cn7C)cn6C)cn5C)cn4C)cn3C)cn2C)cn1C.O=C(O)C(F)(F)F.O=C(O)C(F)(F)F.O=C(O)C(F)(F)F.O=C(O)C(F)(F)F [NV1087, TMG-PyPyPyβPyPyβPyIm-γ-PyβPyPyβPyPyPyβPyβ-Ta•4TFA] | 31 | 24 | 16 | protects the DNA from digestion by DNase I | – | – | – | – | – | –
2 | CN(CCCN)CCCNC(=O)CCNC(=O)c1cc(NC(=O)CCNC(=O)c2cc(NC(=O)c3cc(NC(=O)c4cc(NC(=O)CCNC(=O)c5cc(NC(=O)c6cc(NC(=O)c7cc(NC(=O)CCCNC(=O)c8cc(NC(=O)CCNC(=O)c9cc(NC(=O)c%10cc(NC(=O)CCNC(=O)c%11cc(NC(=O)c%12cc(N=C(N(C)C)N(C)C)cn%12C)cn%11C)cn%10C)cn9C)cn8C)cn7C)cn6C)cn5C)cn4C)cn3C)cn2C)cn1C [NV1097, TMG-PyPyβPyPyβPy-γ-PyPyPyβPyPyPyβPyβ-Ta•3TFA] | 70 | 257 | 40 | – | 70 | 1410 | 257 | > 10000 | 40 | 10000
3 | CN(CCCN)CCCNC(=O)CCNC(=O)c1cc(NC(=O)CCNC(=O)c2cc(NC(=O)c3cc(NC(=O)c4cc(NC(=O)CCNC(=O)c5cc(NC(=O)c6cc(NC(=O)c7cc(NC(=O)CCCNC(=O)c8cc(NC(=O)CCNC(=O)c9cc(NC(=O)c%10cc(NC(=O)CCNC(=O)c%11cc(NC(=O)c%12cc(NC(=O)c%13cc(N=C(N(C)C)N(C)C)cn%13C)cn%12C)cn%11C)cn%10C)cn9C)cn8C)cn7C)cn6C)cn5C)cn4C)cn3C)cn2C)cn1C [NV1098, TMG-PyPyPyβPyPyβPy-γ-PyPyPyβPyPyPyβPyβ-Ta•3TFA] | 11 | 17 | 24 | – | 11 | 1360 | 17 | > 10000 | 24 | 549
4 | TMG-PyPyβPyPyβ-γNH2-PyPyPyβPyPyPyβPyβ-Ta•4TFA [NV1095] | 204 | > 10000 | 49 | – | – | – | – | – | – | –
